The record followed here is US20250129334A1, “LINEAGE SPECIFICATION DURING STEM CELL TRANSITION” (Amniotics AB, priority 2021, published 2025).

For one experiment, the system named is LT-HSCs. Briefly: CFU assay of LT-HSCs sorted from fetal livers of treated embryos. The format is in vivo, mice. As to conditions: DCA-treated embryos vs control and UK5099. The protocol: For fetal liver analysis, pregnant female C57Bl/6xB6.SJL mice were injected intraperitoneally at E9.5 with UK5099 (4 mg/kg) or DCA (200 mg/kg) or PBS (control). Embryos were harvested at E14.5 and individually weighed and processed. Fetal livers were dissected and homogenised in 800 μL ice cold PBS supplemented with 2% fetal bovine serum (FBS) and FL cells were washed in PBS with 2%/FBS. For the differentiated lineage panel, cells were stained with B220 and CD19 (B-cell markers)-PE, CD3e-APC, Ter119-PeCy7 and CD71-FITC and analyzed on a BD FACSARIA III. For the HSC panel, samples were first treated with ammonium chloride solution (STEMCELL Technologies, France) to lyse red blood cells, washed twice in ice cold PBS with 2% FBS, stained with CD3e, B220, Ter119, Gr1 (Lineage)-PeCy5, c-Kit-Efluor780, Sca1-BV421, CD48-FITC, CD150-BV605 and 7-AAD (for dead cell exclusion) and analyzed on a BD FACSARIA III. […] For plating of CFU assays, 100 LT-HSCs were sorted (gating strategy shown in FIG. 11, e) and resuspended in 3.0 mL Methocult M3434 (STEMCELL Technologies, France). Each mixture was divided onto 2 wells of a non-tissue culture treated 6-well plate. Following a 14-day incubation in a humidified incubator at 37° C., 5% CO2, 20% O2, colonies were morphologically distinguished and scored. […] Cells were stained with anti-cKit and anti-CD45 antibodies and analyzed on a BD LSRFortessa. […]

For the next experiment, the system named is EHT cells. In words: EHT cell subculture with metabolic regulators, flow cytometry. As to conditions: UK5099 10 μM. The class given is cell-based, human. The text has this:
The RB9-CB1 human iPSC line (Woods, N.-B. et al. Brief report: efficient generation of hematopoietic precursors and progenitors from human pluripotent stem cell lines. Stem Cells 29, 1158-1164 (2011)) was co-cultured with mouse embryonic fibroblasts (MEFs, Millipore), passaged every six days and processed to form embryoid bodies (EBs) as described previously (Guibentif, C. et al. Single-Cell Analysis Identifies Distinct Stages of Human Endothelial to-Hematopoietic Transition. Cell Reports 19, 10-19 (2017)). The differentiation protocol used in this study was previously described (Ditadi, A. & Sturgeon, C. M. Directed differentiation of definitive hemogenic endothelium and hematopoietic progenitors from human pluripotent stem cells. Methods 101, 65-72 (2016)), however, small modifications were made to induce both primitive and definitive hematopoiesis, as indicated below and in FIG. 6, a. Newly-formed EBs were first kept in SFD medium supplemented with 1 ng/ml Activin A (on days 0-2) and 3 μM CHIR99021 (on day 2 only). At day 3, media was switched to “Day 3-SP34” medium supplemented with 1 ng/ml Activin A (on day 3 only) and 3 μM CHIR99021 (on day 3 only) until day 6. On day 6, media was replaced by “Day 6-SP34” medium, until day 8. In some experiments where indicated, to obtain a higher yield of HSC-like cells, EBs were kept until day 10: in this case, EBs were plated onto Matrigel (8 μg/cm2, Corning)-coated dishes on day 8 and kept until day 10. Media was changed every day, except on days 5 and 7. On day 8 or 10 (as indicated), EBs were singularized with 5-6 rounds of 5-minute incubations with TryPLE Express (Thermo Fisher Scientific). […]

Take `O=C(O)C(Cl)Cl` [DCA, dichloroacetate]: the “decrease in the BFU-E to CFU-GM ratio” value in the experiment with LT-HSCs turned out to be 80%.
Regarding `N#CC(=Cc1cn(-c2ccccc2)c2ccccc12)C(=O)O` [UK5099, 2-Cyano-3-(1-phenyl-1H-indol-3-yl)-2-propenoic acid], the “CD43+GPA+ cell output” value with EHT cells (day 3, EHT cells) is on record as “absence of bias”. Moreover, in the experiment on EHT cells (day 6, deriving from EHT cells), the “decrease in CD43+CD45+ population” value worked out at 2 fold.
